The text below walks through data of US5137811A, “Method for diagnosing periodontal diseases with a substrate specific for aminopeptidase activity of periodontopathic bacteria” (Sunstar Kabushiki Kaisha, priority 1986, dated 1992).

Experiment [1] concerns Fusobacterium nucleatum. Description: Hydrolytic activity of cell suspension on aminopeptidase substrates (Experiment 2). It counts as cell-based. Particulars: three strains, Table 2. The method, then: (§1) The strains of Treponema were anaerobically cultivated using TYGVS media at 37° C. for 7 days, while other bacterial strains were cultivated using brain heart infusion broth at 37° C. for 48 to 72 hours. Each culture was diluted to obtain a bacterial cell suspension, the absorption at 660 nm of which was 1.0.
(§2) Substrate compounds for aminopeptidase enzyme having various color developing groups derived from β-naphthylamine were dissolved in 0.1M Tris-HCl buffer (pH 7.0) at the concentration of 0.2 mM to obtain substrate solutions.
(§3) To the substrate solution (1.5 ml) was added the above cell suspension (0.3 ml) and reacted at 37° C. for 60 minutes. After completion of the reaction, a coloring reagent [prepared by dissolving diazonium salt of Garnet GBC in 1M acetate buffer (containing 10% Tween 20, pH: 4.2) at the concentration of 0.5 mg/ml] was added and, after 15 minutes, the absorption at 525 nm was determined with a spectrophotometer.
(§4) On the basis of the average amount of released β-naphthylamine in each strain, the hydrolytic activity was expressed as follows: […]
(§5) According to the same manner as described in Experiment 1, periodontopathic bacteria specific aminopeptidase activity was tested by using four strains of Treponema denticola, five strains of B. gingivalis, three strains of B. intermedius, two strains of B. melaninogenicus, two strains of Actinomyces israelli, four strains of Actinobacillus actinomycetemcomitans and three strains of Fusobacterium nucleatum. Abbreviations used in Table 2 mean the following substrate compounds.

A further experiment relates to B. intermedius. The description is as above. It counts as cell-based. Particulars: three strains, Table 2. The method, then: as §1, §2, §3, §4, §5
The subject of another experiment is B. corporis. The description is as above. It counts as cell-based. Particulars: Table 2. The method, then:
as §1, §2, §3, §4, §5

The next experiment has as its system Actinomyces israelli. The description is as above. It counts as cell-based. Particulars: two strains, Table 2. As to the method:
as §1, §2, §3, §4, §5

The test system of experiment [2] is Treponema denticola. Described as above. It counts as cell-based. Particulars: four strains, Table 2. As to the method:
as §1, §2, §3, §4, §5

For a further experiment, the system named is B. gingivalis. Described as above. It counts as cell-based. Particulars: five strains, Table 2. As to the method:
as §1, §2, §3, §4, §5

A further experiment concerns B. denticola. The experiment is described as above. It counts as cell-based. Particulars: Table 2. The method, then: as §1, §2, §3, §4, §5
Another experiment concerns B. melaninogenicus. Described as above. It counts as cell-based. Particulars: two strains, Table 2. The method, then: as §1, §2, §3, §4, §5
For experiment [3], the system named is Actinobacillus actinomycetemcomitans. Described as above. The class given is cell-based. Particulars: four strains, Table 2. As to the method: as §1, §2, §3, §4, §5
The subject of experiment [4] is periodontopathic bacteria specific aminopeptidase activity. Description: Hydrolytic activity of gingival crevicular fluid specimens, visually evaluated (Experiment 5). The class given is biochemical. The arrangement: key: -: orange; +: dark orange; ++: brown; +++: dark brown. As to the method:
as §2, §3
Specimens of gingival crevicular fluid were collected with paper points from five subjects who were considered to be healthy from their clinical state, six subjects with gingivitis and six subjects with periodontitis. Each specimen was dispersed in Ringer's solution (1.5 ml), and the relative amount of spirochete to total bacteria: [formula] was determined with a phase contrast microscope. Further, the Ringer's solution (0.3 ml) was tested for hydrolytic activity using the substrate solution prepared in the same manner as described in Experiment 1. As substrates, there were used compounds of the formula [1], i.e., N-benzoylvalyl-glycyl-arginine-β-naphthylamide (BzVGR) and N-carbobenzoxy-valyl-glycyl-arginine-β-naphthylamide (CxVGR) were used.
In table 4, hydrolytic activity was visually evaluated and expressed as follows: […]
According to the same manner as described in Experiment 4, hydrolytic activity was tested by using the compounds of the formula [2], i.e., lysyl-proline-β-naphthylamide (KP) and N-carbobenzoxy-prolyl-alanyl-glycylproline-β-naphthylamide (CxPAGP) as the substrates.

Experiment [5] relates to Fusobacterium nucleatum. Description: Hydrolytic activity of oral anaerobe cell suspension on aminopeptidase substrates (Experiment 1). It counts as cell-based. Particulars: three strains, substrate 0.2 mM, pH 7.0, 37° C., 60 minutes, Table 1. The method, then:
(§6) Oral anaerobes, i.e., four strains of Treponema denticola, five strains of B. gingivalis, four strains of Actinobacillus actinomycetemcomitans, four strains of Capnocytophaga sp. and three strains of Fusobacterium nucleatum were tested for hydrolytic activity to the substrate of aminopeptidase enzyme as follows.
as §1, §2, §3, §4

For a further experiment, the system named is Bacteroides gingivalis. Described as above. The class given is cell-based. The following applies: five strains, substrate 0.2 mM, pH 7.0, 37° C., 60 minutes, Table 1. The method, then: as §6, §1, §2, §3, §4
The subject of another experiment is Capnocytophaga sp. Described as above. It counts as cell-based. Particulars: four strains, substrate 0.2 mM, pH 7.0, 37° C., 60 minutes, Table 1. As to the method:
as §6, §1, §2, §3, §4

Experiment [6] deals with Treponema denticola. The description is as above. It counts as cell-based. The following applies: four strains, substrate 0.2 mM, pH 7.0, 37° C., 60 minutes, Table 1. The method, then: as §6, §1, §2, §3, §4
Experiment [7] has as its system Actinobacillus actinomycetemcomitans. Described as above. The class given is cell-based. The following applies: four strains, substrate 0.2 mM, pH 7.0, 37° C., 60 minutes, Table 1. As to the method: as §6, §1, §2, §3, §4

The structures appear in SMILES notation. Where a SMILES comes first, the peptide text is derived from it. The star is where a group is joined. βNA = c1ccc2cc(N*)ccc2c1; Cbz = O=C(OCc1ccccc1)*; Bz = O=C(c1ccccc1)*

`C[C@H](NC(=O)[C@@H]1CCCN1C(=O)OCc1ccccc1)C(=O)NCC(=O)N1CCC[C@H]1C(=O)Nc1ccc2ccccc2c1` [CxPAGP, N-carbobenzoxy-prolyl-alanyl-glycyl-proline-β-naphthylamide] (Cbz-PAGP-βNA): the “hydrolytic activity (average amount of released β-naphthylamine)” value in the experiment on Fusobacterium nucleatum [1] was “- (release amount<5 nmol/ml)”; with B. intermedius, “+++ (release amount≥40 nmol/ml)”; with B. corporis, “++ (20 ≤release amount<40 nmol/ml)”; in the experiment on Actinomyces israelli, “- (release amount<5 nmol/ml)”; with Treponema denticola [2], “+++ (release amount≥40 nmol/ml)”; in the experiment on B. gingivalis, “+ (10 ≤release amount<20 nmol/ml)”. For the same molecule, the “hydrolytic activity (average amount of released β-naphthylamine)” value is “+++ (release amount≥40 nmol/ml)” in the experiment on B. denticola, “+++ (release amount≥40 nmol/ml)” with B. melaninogenicus and “- (release amount<5 nmol/ml)” in [3]. In addition, the “hydrolytic activity, visually evaluated” value is listed as “+” in experiment [4] (Gingivitis subject 1 (spirochete 7.3 %)); “+” in [4] (Gingivitis subject 2 (spirochete 16.7 %)); “++” in [4] (Gingivitis subject 3 (spirochete 20.5 %)); “-” in experiment [4] (Gingivitis subject 4 (spirochete 6.8 %)); “-” in experiment [4] (Gingivitis subject 5 (spirochete 7.3 %)); “+” in [4] (Gingivitis subject 6 (spirochete 14.4 %)). Besides, the “hydrolytic activity, visually evaluated” value in [4] (Healthy subject 1 (spirochete 0.1 %)) is listed as “-”; in experiment [4] (Healthy subject 2 (spirochete 2.5 %)), “+”; in experiment [4] (Healthy subject 3 (spirochete 1.1 %)), “-”; in experiment [4] (Healthy subject 4 (spirochete 0.6 %)), “-”; in experiment [4] (Healthy subject 5 (spirochete 1.3 %)), “-”; in experiment [4] (Periodontitis subject 1 (spirochete 45.2 %)), “+++”. Also, the “hydrolytic activity, visually evaluated” value in experiment [4] (Periodontitis subject 2 (spirochete 30.3 %)), in experiment [4] (Periodontitis subject 3 (spirochete 34.6 %)), in [4] (Periodontitis subject 4 (spirochete 21.2 %)), in experiment [4] (Periodontitis subject 5 (spirochete 40.3 %)) and in experiment [4] (Periodontitis subject 6 (spirochete 35.1 %)) was “+++” throughout.
With `C[C@H](N)C(=O)Nc1ccc2ccccc2c1` [A, alanine-β-naphthylamide, reference compound], the “hydrolytic activity (average amount of released β-naphthylamine)” value with Fusobacterium nucleatum [1], in the experiment on B. intermedius, with B. corporis, with Actinomyces israelli, in the experiment with Treponema denticola [2] and in the experiment with B. gingivalis was “- (release amount<5 nmol/ml)” each time. Besides, the “hydrolytic activity (average amount of released β-naphthylamine)” value was “- (release amount<5 nmol/ml)” in the experiment on B. denticola; “- (release amount<5 nmol/ml)” in the experiment with B. melaninogenicus; “- (release amount<5 nmol/ml)” in experiment [3]; “- (release amount<5 nmol/ml)” in the experiment on Fusobacterium nucleatum [5]; “- (release amount<5 nmol/ml)” in the experiment with Bacteroides gingivalis; “+++ (release amount≥40 nmol/ml)” with Capnocytophaga sp.. In addition, the “hydrolytic activity (average amount of released β-naphthylamine)” value (with Treponema denticola [6]; in experiment [7]) was “- (release amount<5 nmol/ml)” throughout.
Regarding `O=C(NCC(=O)N1CCC[C@H]1C(=O)Nc1ccc2ccccc2c1)c1ccccc1` [BzGP, N-benzoyl-glycyl-proline-β-naphthylamide] (Bz-Gly-Pro-βNA), the “hydrolytic activity (average amount of released β-naphthylamine)” value in the experiment on Fusobacterium nucleatum [1] is “- (release amount<5 nmol/ml)”; in the experiment with B. intermedius it was “+++ (release amount≥40 nmol/ml)”; in the experiment with B. corporis, “++ (20 ≤release amount<40 nmol/ml)”; with Actinomyces israelli it was “- (release amount<5 nmol/ml)”; in the experiment with Treponema denticola [2], “++ (20 ≤release amount<40 nmol/ml)”; with B. gingivalis it was “++ (20 ≤release amount<40 nmol/ml)”. Further, the “hydrolytic activity (average amount of released β-naphthylamine)” value with B. denticola is listed as “++ (20 ≤release amount<40 nmol/ml)”; with B. melaninogenicus, “++ (20 ≤release amount<40 nmol/ml)”; in [3], “- (release amount<5 nmol/ml)”.
`NCCCC[C@H](N)C(=O)Nc1ccc2ccccc2c1` [K, lysine-β-naphthylamide, reference compound]: the “hydrolytic activity (average amount of released β-naphthylamine)” value in the experiment with Fusobacterium nucleatum [1], in the experiment on B. intermedius, in the experiment with B. corporis, in the experiment on Actinomyces israelli, with Treponema denticola [2] and in the experiment on B. gingivalis was “- (release amount<5 nmol/ml)” each time. For the same molecule, the “hydrolytic activity (average amount of released β-naphthylamine)” value in the experiment with B. denticola is reported as “- (release amount<5 nmol/ml)”; in the experiment with B. melaninogenicus, “- (release amount<5 nmol/ml)”; in experiment [3], “- (release amount<5 nmol/ml)”; in the experiment with Fusobacterium nucleatum [5] it was “- (release amount<5 nmol/ml)”; in the experiment on Bacteroides gingivalis it was “- (release amount<5 nmol/ml)”; in the experiment on Capnocytophaga sp. it was “+++ (release amount≥40 nmol/ml)”. Also, the “hydrolytic activity (average amount of released β-naphthylamine)” value (in the experiment on Treponema denticola [6]; in experiment [7]) was “- (release amount<5 nmol/ml)” each time.
Turning to `NCC(=O)Nc1ccc2ccccc2c1` [G, glycine-β-naphthylamide, reference compound], the “hydrolytic activity (average amount of released β-naphthylamine)” value in the experiment with Fusobacterium nucleatum [1], in the experiment with B. intermedius, with B. corporis, in the experiment with Actinomyces israelli, in the experiment with Treponema denticola [2] and in the experiment on B. gingivalis was “- (release amount<5 nmol/ml)” each time. The “hydrolytic activity (average amount of released β-naphthylamine)” value with B. denticola was “- (release amount<5 nmol/ml)”; in the experiment on B. melaninogenicus it was “- (release amount<5 nmol/ml)”; in [3] it was “- (release amount<5 nmol/ml)”; in the experiment on Fusobacterium nucleatum [5], “- (release amount<5 nmol/ml)”; with Bacteroides gingivalis, “- (release amount<5 nmol/ml)”; in the experiment on Capnocytophaga sp., “+ (10 ≤release amount<20 nmol/ml)”. The “hydrolytic activity (average amount of released β-naphthylamine)” value (with Treponema denticola [6]; in experiment [7]) was “- (release amount<5 nmol/ml)” each time.
